# Source: US12172983B2, “EGFR inhibitors” (Blueprint Medicines Corporation, priority 2019, dated 2024)
# Read-outs that look alike come from different tables or passages of the source.
# Key:
# EGFR (L858R T790M C797S) = molecular target: T1, EGFR (L858R T790M C797S) (Homo sapiens, UniProt P00533, C797S/L858R/T790M); test: Biochemical EGFR inhibition assay (Caliper mobility shift), EGFR LRTMCS mutant; details: inhibitory activity against EGFR LRTMCS mutant; apparent IC50; read-out: Ext Enz LRTMCS
# T1 construct: purchased SignalChem E10-122VG
# Method in brief: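 Apparent IC50s were derived by plotting percent activity against the log of compound concentration. Activity was measured as phosphopeptide electrophoretically separated from substrate, after reactions at room temperature reached 10% to 20% phosphorylation and were halted with 35 mM EDTA.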
# [1] = system: phosphorylation of EGFR (Tyr1068) in NCI-H1975 cell line that harbors the EGFR L858R T790M mutations; test: NCI-H1975 pEGFR AlphaLISA assay; assay type: cell-based; details: 4-5 hours incubation, read-out: Ext pEGFR H1975
# Method in brief: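 Phospho-EGFR Tyr1068 AlphaLISA readout: lysates taken from compound-treated H1975 cells (L858R T790M EGFR) after a 4-5 h exposure at 37 °C. Cells had adhered overnight beforehand. IC50 derived by plotting % pEGFR inhibition against log compound concentration.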
# [2] = Homo sapiens, NCI-H1975, inhibition of phosphorylation of mutant EGFR in NCI-H1975 cells
# T1 sequence (P00533 25-1210 T790M/C797S/L858R): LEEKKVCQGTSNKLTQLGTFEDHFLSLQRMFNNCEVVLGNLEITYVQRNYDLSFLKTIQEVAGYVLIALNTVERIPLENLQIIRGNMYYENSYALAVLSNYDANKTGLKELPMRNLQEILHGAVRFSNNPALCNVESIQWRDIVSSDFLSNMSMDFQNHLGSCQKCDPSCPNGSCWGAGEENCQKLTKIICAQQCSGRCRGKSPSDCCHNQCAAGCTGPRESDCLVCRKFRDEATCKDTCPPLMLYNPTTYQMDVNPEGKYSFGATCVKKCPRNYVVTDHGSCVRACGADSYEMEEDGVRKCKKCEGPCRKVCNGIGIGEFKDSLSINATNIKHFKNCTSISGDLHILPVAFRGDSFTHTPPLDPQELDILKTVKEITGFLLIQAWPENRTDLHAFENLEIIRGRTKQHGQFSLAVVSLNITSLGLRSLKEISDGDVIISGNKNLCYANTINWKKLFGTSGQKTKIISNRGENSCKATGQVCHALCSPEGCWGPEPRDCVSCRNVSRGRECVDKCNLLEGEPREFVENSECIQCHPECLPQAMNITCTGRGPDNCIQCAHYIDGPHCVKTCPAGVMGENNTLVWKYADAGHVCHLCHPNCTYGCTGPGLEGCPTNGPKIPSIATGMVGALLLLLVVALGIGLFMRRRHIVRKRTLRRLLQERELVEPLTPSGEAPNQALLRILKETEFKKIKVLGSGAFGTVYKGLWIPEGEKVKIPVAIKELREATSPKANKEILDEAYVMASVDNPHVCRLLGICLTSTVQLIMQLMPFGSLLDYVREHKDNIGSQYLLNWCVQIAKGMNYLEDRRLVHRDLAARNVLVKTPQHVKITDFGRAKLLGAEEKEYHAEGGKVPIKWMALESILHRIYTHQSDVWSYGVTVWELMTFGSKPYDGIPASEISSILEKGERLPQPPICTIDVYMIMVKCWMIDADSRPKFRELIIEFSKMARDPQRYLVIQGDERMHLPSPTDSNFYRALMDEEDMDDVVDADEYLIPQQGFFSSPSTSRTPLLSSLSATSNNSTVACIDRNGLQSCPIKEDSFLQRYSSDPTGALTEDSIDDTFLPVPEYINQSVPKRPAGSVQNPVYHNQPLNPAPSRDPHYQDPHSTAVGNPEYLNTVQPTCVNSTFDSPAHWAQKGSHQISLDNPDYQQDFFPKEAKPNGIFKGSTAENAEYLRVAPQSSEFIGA
Compound,IC50 (EGFR (L858R T790M C797S)) [nM],"IC50 [1, 2] [nM]",IC50 ([1]; inhibition of phosphorylation of mutant EGFR in NCI-H1975 cells) [nM]
"CO[C@H]1CCN(c2nccc(Nc3cc4c(C(C)C)ncc(N5CC(CS(C)(=O)=O)C5)c4cn3)n2)C[C@H]1F [Compound 73, N-{2-[(3R,4S)-3-fluoro-4-methoxypiperidin-1-yl]pyrimidin-4-yl}-8-[3-(methanesulfonylmethyl)azetidin-1-yl]-5-(propan-2-yl)-2,6-naphthyridin-3-amine]",≤ 15,≤ 10,–
"COC1CCN(c2nncc(Nc3cc4c(C(C)C)ccc(N5CC(CS(C)(=O)=O)C5)c4cn3)n2)CC1 [Compound 23, 8-[3-(methanesulfonylmethyl)azetidin-1-yl]-N-[3-(4-methoxypiperidin-1-yl)-1,2,4-triazin-5-yl]-5-(propan-2-yl)isoquinolin-3-amine]",≤ 15,10.1 to 20,–
"CC(C)c1ccc(N2CC(CS(C)(=O)=O)C2)c2cnc(Nc3ccnc(N4CC5COC(C5)C4)n3)cc12 (racemic) [Compound 13, (rac)-8-[3-(methanesulfonylmethyl)azetidin-1-yl]-N-{2-[6-oxa-3-azabicyclo[3.2.1]octan-3-yl]pyrimidin-4-yl}-5-(propan-2-yl)isoquinolin-3-amine]",≤ 15,30.1 to 50,–
"CO[C@H]1CN(c2nccc(Nc3cc4c(C(C)C)ccc(N5C[C@H](CS(C)(=O)=O)[C@H]5C)c4cn3)n2)CC[C@@H]1O (single isomer, unassigned) [Compound 98, (3R,4R)-1-[4-({8-[(2R,3S)-3-(methanesulfonylmethyl)-2-methylazetidin-1-yl]-5-(propan-2-yl)isoquinolin-3-yl}amino)pyrimidin-2-yl]-3-methoxypiperidin-4-ol or (3S,4S)-1-[4-({8-[(2R,3S)-3-(methanesulfonylmethyl)-2-methylazetidin-1-yl]-5-(propan-2-yl)isoquinolin-3-yl}amino)pyrimidin-2-yl]-3-methoxypiperidin-4-ol]",≤ 15,10.1 to 20,–
"CC(C)c1ccc(N2C[C@H](CS(C)(=O)=O)[C@H]2C)c2cnc(Nc3ccnc(N4CC[C@H](O)C[C@@H]4C)n3)cc12 (single isomer, unassigned) [Compound 48, (2R,4R)-1-[4-({8-[(2R,3S)-3-(methanesulfonylmethyl)-2-methylazetidin-1-yl]-5-(propan-2-yl)isoquinolin-3-yl}amino)pyrimidin-2-yl]-2-methylpiperidin-4-ol or (2S,4S)-1-[4-({8-[(2R,3S)-3-(methanesulfonylmethyl)-2-methylazetidin-1-yl]-5-(propan-2-yl)isoquinolin-3-yl}amino)pyrimidin-2-yl]-2-methylpiperidin-4-ol]",≤ 15,–,≤ 10
"CO[C@@H]1CCN(c2nccc(Nc3cc4c(C(C)C)ccc(N5CC(CS(C)(=O)=O)C5)c4cn3)n2)C[C@@H]1F [Compound 64, N-(2-((3S,4R)-3-fluoro-4-methoxypiperidin-1-yl)pyrimidin-4-yl)-5-isopropyl-8-(3-(methylsulfonylmethyl)azetidin-1-yl)isoquinolin-3-amine]",≤ 15,≤ 10,–
"C[C@]1(F)CN(c2nccc(Nc3cc4c(C5CC5)ccc(N5CC(CS(C)(=O)=O)C5)c4cn3)n2)CC[C@H]1O (single isomer, unassigned) [Compound 51]",≤ 15,20.1 to 30,–

# Results, then the compound that gave them:
IC50 (EGFR (L858R T790M C797S)) [nM],"IC50 [1, 2] [nM]",IC50 ([1]; inhibition of phosphorylation of mutant EGFR in NCI-H1975 cells) [nM],Compound
≤ 15,≤ 10,–,"CC(C)c1ccc(N2C[C@H](CS(C)(=O)=O)[C@H]2C)c2cnc(Nc3ccnc(N4CC[C@H](O)[C@H](F)C4)n3)cc12 [Compound 311, (3R,4S)-3-fluoro-1-[4-({8-[(2R,3S)-3-(methanesulfonylmethyl)-2-methylazetidin-1-yl]-5-(propan-2-yl)isoquinolin-3-yl}amino)pyrimidin-2-yl]piperidin-4-ol]"
≤ 15,≤ 10,–,"CCS(=O)(=O)C[C@H]1CN(c2ccc(C(C)C)c3cc(Nc4ccnc(N5CC[C@H](OCCO)[C@H](F)C5)n4)ncc23)[C@@H]1C [Compound 243, 2-((3R,4S)-1-(4-(8-((2R,3S)-3-(ethylsulfonylmethyl)-2-methylazetidin-1-yl)-5-isopropylisoquinolin-3-ylamino)pyrimidin-2-yl)-3-fluoropiperidin-4-yloxy)ethanol]"
≤ 15,≤ 10,–,"CC(C)c1cnc(N2C[C@H](CS(C)(=O)=O)[C@H]2C)c2cnc(Nc3ccnc(N4CC[C@@](C)(O)[C@@H](F)C4)n3)cc12 (single isomer, unassigned) [Compound 137]"
≤ 15,≤ 10,–,"CCS(=O)(=O)C[C@H]1CN(c2ncc(C(C)C)c3cc(Nc4ccnc(N5CC[C@@](C)(O)[C@@H](F)C5)n4)ncc23)[C@@H]1C (single isomer, unassigned) [Compound 190]"
≤ 15,≤ 10,–,"CCS(=O)(=O)C[C@H]1CN(c2ncc(C(C)C)c3cc(Nc4ccnc(N5CC[C@H](OC)[C@@H](O)C5)n4)ncc23)[C@@H]1C (single isomer, unassigned) [Compound 179]"
30.1 to 100,30.1 to 50,–,"COCCO[C@H]1CCN(c2nccc(Nc3cc4c(C(C)C)ccc(N5CC(CS(C)(=O)=O)C5)c4cn3)n2)C[C@H]1O (racemic) [Compound 226, (3R,4S)-1-[4-[[5-isopropyl-8-[3-(methylsulfonylmethyl)azetidin-1-yl]-3-isoquinolyl]amino]pyrimidin-2-yl]-4-(2-methoxyethoxy)piperidin-3-ol and (3S,4R)-1-[4-[[5-isopropyl-8-[3-(methylsulfonylmethyl)azetidin-1-yl]-3-isoquinolyl]amino]pyrimidin-2-yl]-4-(2-methoxyethoxy)piperidin-3-ol]"
≤ 15,≤ 10,–,"CC(C)c1ncc(N2C[C@H](CS(C)(=O)=O)[C@H]2C)c2cnc(Nc3ccnc(N4CC[C@@H](OCC(C)(C)O)[C@@H](F)C4)n3)cc12 [Compound 258, 1-{[(3S,4R)-3-fluoro-1-[4-({8-[(2R,3S)-3-(methanesulfonylmethyl)-2-methylazetidin-1-yl]-5-(propan-2-yl)-2,6-naphthyridin-3-yl}amino)pyrimidin-2-yl]piperidin-4-yl]oxy}-2-methylpropan-2-ol]"
≤ 15,≤ 10,–,"[2H]C([2H])([2H])O[C@H]1CCN(c2nccc(Nc3cc4c(C(C)C)cnc(N5C[C@H](CS(C)(=O)=O)[C@H]5C)c4cn3)n2)C[C@H]1F (single isomer, unassigned) [Compound 285]"
≤ 15,≤ 10,–,"CC(C)c1ccc(N2C[C@H](CS(C)(=O)=O)[C@H]2C)c2cnc(Nc3ccnc(N4CC[C@@H](OCCN(C)C)C(F)(F)C4)n3)cc12 (single isomer, unassigned) [Compound 304, N-{2-[(4R)-4-[2-(dimethylamino)ethoxy]-3,3-difluoropiperidin-1-yl]pyrimidin-4-yl}-8-[(2R,3S)-3-(methanesulfonylmethyl)-2-methylazetidin-1-yl]-5-(propan-2-yl)isoquinolin-3-amine or N-{2-[(4S)-4-[2-(dimethylamino)ethoxy]-3,3-difluoropiperidin-1-yl]pyrimidin-4-yl}-8-[(2R,3S)-3-(methanesulfonylmethyl)-2-methylazetidin-1-yl]-5-(propan-2-yl)isoquinolin-3-amine]"
20.1 to 30,30.1 to 50,–,"CC(C)c1ccc(N2CC(CS(=O)(=O)C3CNC3)C2)c2cnc(Nc3ccnc(N4CC[C@@H](O)[C@@](C)(F)C4)n3)cc12 (single isomer, unassigned) [Compound 223]"
